This passage reports IC50, AC50 and EC50 results from ChEMBL document CHEMBL1201862, “PubChem BioAssay data set” (2004).

Calls of active or inactive are those of the source.

Test [1] addresses Tumor necrosis factor (Homo sapiens, UniProt P01375). Nature of the test: analog potency on TNFa NF-kB signaling – cell-based, revised, SAR follow-up (AID 2337). The format is functional.
The subject of test [2] is HEK293. Put plainly: NOD2 signaling inhibitors in MDP-stimulated cells, cell-based, uHTS, luminescence (AID 2001). The format is functional. The note with it: Homo sapiens.
Test [3] relates to HEK293. Nature of the test: cells. The format is functional, cell-based. The note with it: Homo sapiens.
The target in test [4] is Nucleotide-binding oligomerization domain-containing protein 1 (Homo sapiens, UniProt Q9Y239). Nature of the test: blockers of NOD1 pathway activity – revised, SAR follow-up (AID 2333). The format is functional.
Nucleotide-binding oligomerization domain-containing protein 1, sequence (Q9Y239 whole entry, the tested form may be a part): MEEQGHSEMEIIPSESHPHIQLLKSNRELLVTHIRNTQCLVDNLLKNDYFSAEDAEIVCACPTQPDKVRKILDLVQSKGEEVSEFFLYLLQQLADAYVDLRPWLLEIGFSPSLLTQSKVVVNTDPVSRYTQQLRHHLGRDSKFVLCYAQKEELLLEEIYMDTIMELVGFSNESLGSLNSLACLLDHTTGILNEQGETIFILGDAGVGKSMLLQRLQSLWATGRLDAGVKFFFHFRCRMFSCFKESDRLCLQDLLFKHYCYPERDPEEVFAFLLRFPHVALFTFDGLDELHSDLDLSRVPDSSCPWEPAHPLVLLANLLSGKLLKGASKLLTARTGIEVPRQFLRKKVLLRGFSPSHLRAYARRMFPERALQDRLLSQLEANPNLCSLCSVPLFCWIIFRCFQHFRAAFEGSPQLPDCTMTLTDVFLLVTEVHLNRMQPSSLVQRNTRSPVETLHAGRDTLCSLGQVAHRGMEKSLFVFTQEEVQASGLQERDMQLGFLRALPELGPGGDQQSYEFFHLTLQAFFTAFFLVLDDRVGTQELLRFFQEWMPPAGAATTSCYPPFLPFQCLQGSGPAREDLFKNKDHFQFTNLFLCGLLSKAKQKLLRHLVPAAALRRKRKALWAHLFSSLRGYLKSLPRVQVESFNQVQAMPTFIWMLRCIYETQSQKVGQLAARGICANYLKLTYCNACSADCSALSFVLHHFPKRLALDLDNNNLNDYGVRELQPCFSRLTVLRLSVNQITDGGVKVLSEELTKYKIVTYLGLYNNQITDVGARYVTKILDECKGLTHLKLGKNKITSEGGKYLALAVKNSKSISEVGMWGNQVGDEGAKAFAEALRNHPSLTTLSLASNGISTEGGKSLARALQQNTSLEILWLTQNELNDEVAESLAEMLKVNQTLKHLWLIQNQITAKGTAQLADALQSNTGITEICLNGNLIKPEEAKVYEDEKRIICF
Test [5] concerns HEK293. Put plainly: cells. The format is functional, cell-based. The conditions noted are these: Homo sapiens. The source holds these as a separate data set.
Test [6] has as its target Nucleotide-binding oligomerization domain-containing protein 2 (Homo sapiens, UniProt Q9HC29). Nature of the test: PubChem AID 2334. The format is functional.
Test [7] concerns HEK293. Nature of the test: cells. The note with it: Homo sapiens.
The target in test [8] is T1, Long-chain-fatty-acid--AMP ligase FadD28 (Mycobacterium tuberculosis, UniProt P9WQ59).
T1 sequence (P9WQ59 whole entry): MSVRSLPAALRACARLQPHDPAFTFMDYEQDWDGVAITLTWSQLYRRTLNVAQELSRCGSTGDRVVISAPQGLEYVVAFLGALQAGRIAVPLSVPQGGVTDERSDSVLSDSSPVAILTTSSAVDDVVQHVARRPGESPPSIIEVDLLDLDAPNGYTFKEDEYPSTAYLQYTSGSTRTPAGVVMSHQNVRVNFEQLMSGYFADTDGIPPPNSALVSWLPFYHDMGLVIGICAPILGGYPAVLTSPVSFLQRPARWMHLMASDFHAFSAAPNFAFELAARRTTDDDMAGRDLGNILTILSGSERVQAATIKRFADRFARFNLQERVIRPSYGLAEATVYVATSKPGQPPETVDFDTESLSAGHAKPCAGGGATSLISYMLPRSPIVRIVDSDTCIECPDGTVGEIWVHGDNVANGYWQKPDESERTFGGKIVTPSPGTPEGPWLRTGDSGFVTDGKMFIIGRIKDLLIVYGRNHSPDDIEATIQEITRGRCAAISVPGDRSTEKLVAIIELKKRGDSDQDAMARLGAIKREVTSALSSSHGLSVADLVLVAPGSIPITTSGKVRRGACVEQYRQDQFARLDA
Put plainly: Fluorescence polarization aasay to screen for inhibitors that compete for the binding of FadD28 to a bisubstrate Measured in Biochemical System Using Plate Reader - 2147-01_Inhibitor_Dose_CherryPick_Activity. The format is functional, Mycobacterium tuberculosis H37Rv. For orientation: Polarisation of emitted light reports the rotation of a fluorescent probe.

Test [9] has as its system HEK293. Nature of the test: inhibition of NOD1-driven NF-kB reporter – cell-based, luminescence, uHTS, primary screen (AID 1578). The format is functional. The note with it: Homo sapiens.
The target in test [10] is Intestinal-type alkaline phosphatase (Homo sapiens, UniProt P09923). Put plainly: inhibition of human intestinal alkaline phosphatase – biochemical, dose response (AID 488876). The format is functional.
Intestinal-type alkaline phosphatase (Homo sapiens, UniProt P09923), sequence (P09923 whole entry): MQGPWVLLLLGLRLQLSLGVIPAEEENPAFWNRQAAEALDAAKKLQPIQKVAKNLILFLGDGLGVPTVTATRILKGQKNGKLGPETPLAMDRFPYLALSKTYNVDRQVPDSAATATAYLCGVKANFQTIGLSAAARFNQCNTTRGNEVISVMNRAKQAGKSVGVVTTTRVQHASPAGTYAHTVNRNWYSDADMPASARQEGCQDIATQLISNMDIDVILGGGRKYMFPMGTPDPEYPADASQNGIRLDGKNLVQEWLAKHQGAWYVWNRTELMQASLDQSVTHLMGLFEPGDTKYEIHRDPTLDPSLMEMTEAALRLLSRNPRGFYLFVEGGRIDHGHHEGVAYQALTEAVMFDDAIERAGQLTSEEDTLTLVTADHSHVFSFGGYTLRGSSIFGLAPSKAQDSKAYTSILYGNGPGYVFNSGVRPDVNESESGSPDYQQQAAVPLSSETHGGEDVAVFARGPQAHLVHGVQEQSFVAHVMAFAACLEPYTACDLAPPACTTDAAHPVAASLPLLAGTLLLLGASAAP
In test [11] the target is T2, Alkaline phosphatase, tissue-nonspecific isozyme (Homo sapiens, UniProt P05186).
T2 sequence (P05186 whole entry): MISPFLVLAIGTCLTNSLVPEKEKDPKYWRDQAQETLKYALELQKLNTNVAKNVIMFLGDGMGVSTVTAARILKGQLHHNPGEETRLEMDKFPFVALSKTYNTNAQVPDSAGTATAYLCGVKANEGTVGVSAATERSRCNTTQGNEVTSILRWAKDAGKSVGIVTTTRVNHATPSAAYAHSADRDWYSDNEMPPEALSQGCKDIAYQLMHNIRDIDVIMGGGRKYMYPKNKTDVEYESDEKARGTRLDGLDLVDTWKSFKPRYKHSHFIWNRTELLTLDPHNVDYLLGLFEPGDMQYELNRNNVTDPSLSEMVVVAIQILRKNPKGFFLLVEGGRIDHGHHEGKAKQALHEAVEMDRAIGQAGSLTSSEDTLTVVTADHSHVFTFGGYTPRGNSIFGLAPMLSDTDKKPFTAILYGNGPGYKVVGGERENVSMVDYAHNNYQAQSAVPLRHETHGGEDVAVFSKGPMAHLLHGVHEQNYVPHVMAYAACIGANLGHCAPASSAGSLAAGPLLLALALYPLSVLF
Put plainly: TNAP enzyme inhibition by screening hits, dose response, selectivity assay for mouse IAP inhibitor project, biochemical, human TNAP, uHTS hits (AID 488906). The format is functional.

Test [12] is described as follows: DRD fibroblast viability loss – cell-based, non-viral oncogenic, luminescence, dose response (AID 1934). The format is functional. The conditions noted are these: Homo sapiens.
Test [13] has as its system BJ. Put plainly: cells. The note with it: Homo sapiens. The format is functional, cell-based.
Test [14] relates to BJ. Put plainly: BJ-TERT-LT-ST fibroblast viability loss – cell-based, RAS-independent, luminescence, dose response (AID 1935).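 Note: BJ fibroblasts immortalized with TERT plus LT and ST oncogenes.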 The format is functional. The note with it: Homo sapiens.
Test [15] deals with BJ. Put plainly: BJ-TERT fibroblast viability loss – cell-based, RAS-independent, luminescence, dose response (AID 1933). The format is functional. The conditions noted are these: Homo sapiens.
The target in test [16] is Intestinal-type alkaline phosphatase (Mus musculus, UniProt P24822). Put plainly: PubChem AID 488785. The format is functional.
Intestinal-type alkaline phosphatase (Mus musculus, UniProt P24822), sequence (P24822 whole entry): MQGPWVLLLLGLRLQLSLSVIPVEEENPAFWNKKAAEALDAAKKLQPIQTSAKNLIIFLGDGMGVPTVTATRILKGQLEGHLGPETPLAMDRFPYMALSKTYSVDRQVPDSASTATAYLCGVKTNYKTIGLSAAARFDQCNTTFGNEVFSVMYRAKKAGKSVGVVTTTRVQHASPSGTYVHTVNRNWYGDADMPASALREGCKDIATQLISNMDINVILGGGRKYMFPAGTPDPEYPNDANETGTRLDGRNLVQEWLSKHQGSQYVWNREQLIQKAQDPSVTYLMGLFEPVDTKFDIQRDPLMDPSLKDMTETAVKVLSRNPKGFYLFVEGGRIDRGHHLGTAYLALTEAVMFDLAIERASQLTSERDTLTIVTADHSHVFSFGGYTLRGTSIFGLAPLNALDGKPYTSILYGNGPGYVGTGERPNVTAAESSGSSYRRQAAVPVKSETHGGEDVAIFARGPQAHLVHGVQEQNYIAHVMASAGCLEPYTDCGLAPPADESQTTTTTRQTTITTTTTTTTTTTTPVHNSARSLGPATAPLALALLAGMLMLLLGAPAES
Test [17] deals with Phospholipase D1 (Homo sapiens, UniProt Q13393). Put plainly: PLD1 purified enzyme concentration response. [Related pubchem assays (depositor defined):AID588854]. The format is functional.
Test [18] in a line: viability loss of HMLE_sh_eGFP cells – cell-based, luminescence, counter-screen for HMLE_sh_ECad selective toxicity project, dose response (AID 463074).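 Note: HMLE human mammary epithelial cells expressing control shRNA against eGFP.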 The format is functional, Homo sapiens.
The nature of test [19]: Luminescence Cell-Based Dose Retest to Confirm Inhibitors of Cancer Stem Cells. [Related pubchem assays (depositor defined):AID2717, AID2721]. The format is functional. The note with it: Homo sapiens.
Test [20] has as its target Cytochrome P450 2C9 (Homo sapiens, UniProt P11712). The conditions noted are these: Potency.
The target of test [21] is Eukaryotic translation initiation factor 4E (Mus musculus, UniProt P63073). Nature of the test: blockers of eIF4G binding by eIF4E – biochemical, TR-FRET, dose response (AID 855).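 Note: potency for disrupting eIF4E binding to eIF4GI seen as loss of FRET.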 The format is functional. (Time-resolved FRET reads energy transfer from a long-lived donor to a nearby acceptor.)
Eukaryotic translation initiation factor 4E, sequence (P63073 whole entry): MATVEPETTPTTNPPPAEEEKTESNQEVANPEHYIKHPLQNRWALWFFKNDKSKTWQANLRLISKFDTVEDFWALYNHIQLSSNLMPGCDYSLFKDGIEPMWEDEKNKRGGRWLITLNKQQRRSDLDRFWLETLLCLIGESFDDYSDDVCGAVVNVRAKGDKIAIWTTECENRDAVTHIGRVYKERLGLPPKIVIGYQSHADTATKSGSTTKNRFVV
For test [22], the target named is T3, Heat shock 70 kDa protein 1A (Homo sapiens, UniProt P0DMV8). Put plainly: small molecules displacing fluorescent ligand from Hsp70 – biochemical, fluorescence polarization, primary screen (AID 583).
T3 sequence (P0DMV8 whole entry): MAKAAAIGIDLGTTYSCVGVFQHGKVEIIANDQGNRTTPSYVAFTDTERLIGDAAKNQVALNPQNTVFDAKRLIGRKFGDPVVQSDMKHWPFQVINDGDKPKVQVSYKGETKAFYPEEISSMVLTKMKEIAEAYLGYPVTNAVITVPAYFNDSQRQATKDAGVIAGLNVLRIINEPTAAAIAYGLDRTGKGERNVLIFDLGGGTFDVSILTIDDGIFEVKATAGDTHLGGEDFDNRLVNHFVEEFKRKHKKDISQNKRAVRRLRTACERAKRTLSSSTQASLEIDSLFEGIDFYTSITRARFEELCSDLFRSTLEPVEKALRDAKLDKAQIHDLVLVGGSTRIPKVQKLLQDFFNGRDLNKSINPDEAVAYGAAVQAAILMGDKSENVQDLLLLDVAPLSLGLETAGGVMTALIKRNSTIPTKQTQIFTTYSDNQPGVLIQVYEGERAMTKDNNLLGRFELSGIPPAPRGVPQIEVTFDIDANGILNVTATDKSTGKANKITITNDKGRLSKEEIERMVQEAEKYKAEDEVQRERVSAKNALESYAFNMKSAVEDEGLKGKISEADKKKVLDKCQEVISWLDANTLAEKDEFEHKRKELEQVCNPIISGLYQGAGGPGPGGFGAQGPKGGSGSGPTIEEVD
Test [23] deals with T4, Dual specificity protein phosphatase 3 (Homo sapiens, UniProt P51452). Put plainly: VHR1 phosphatase inhibitors, primary screen, biochemical, absorbance, uHTS (AID 1654).
T4 sequence (P51452 whole entry): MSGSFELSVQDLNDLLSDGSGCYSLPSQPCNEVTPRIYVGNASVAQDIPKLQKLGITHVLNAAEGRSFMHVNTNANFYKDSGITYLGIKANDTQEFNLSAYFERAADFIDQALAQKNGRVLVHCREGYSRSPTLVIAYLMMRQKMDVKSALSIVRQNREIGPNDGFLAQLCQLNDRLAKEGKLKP
Test [24] deals with Likely tRNA 2'-phosphotransferase (Candida albicans (strain SC5314 / ATCC MYA-2876) (Yeast), UniProt Q5A7N4). Put plainly: inhibition of Candida TPT1 enzyme activity – biochemical, fluorescence polarization, dose response (AID 2160).
Likely tRNA 2'-phosphotransferase, sequence (Q5A7N4 whole entry): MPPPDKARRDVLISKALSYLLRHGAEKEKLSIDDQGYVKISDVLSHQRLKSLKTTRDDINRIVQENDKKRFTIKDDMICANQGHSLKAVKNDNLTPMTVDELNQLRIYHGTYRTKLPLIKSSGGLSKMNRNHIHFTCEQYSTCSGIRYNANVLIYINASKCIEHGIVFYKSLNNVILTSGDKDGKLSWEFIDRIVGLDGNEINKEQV
For test [25], the target named is T3, Heat shock 70 kDa protein 1A. Nature of the test: small-molecule inhibition of Hsp70 – biochemical, TR-FRET (AID 786).
For test [26], the target named is Guanyl-specific ribonuclease T1 (Aspergillus oryzae (strain ATCC 42149 / RIB 40), UniProt P00651). Put plainly: inhibition of ribonuclease T1 activity – biochemical, fluorescence polarization, 1536-well, counter-screen for TPT1 inhibitor project, dose response (AID 2167).
Guanyl-specific ribonuclease T1, sequence (P00651 whole entry): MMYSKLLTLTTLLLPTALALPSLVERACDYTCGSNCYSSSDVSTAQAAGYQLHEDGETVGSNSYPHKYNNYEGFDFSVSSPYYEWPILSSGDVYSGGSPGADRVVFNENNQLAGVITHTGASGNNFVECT
Test [27] has as its target T4, Dual specificity protein phosphatase 3. Put plainly: VHR1 phosphatase inhibitors, biochemical (AID 1878).
Test [28] deals with T3, Heat shock 70 kDa protein 1A. Nature of the test: inhibition of Hsp70 binding activity – biochemical, fluorescence polarization, SAR follow-up (AID 1072).
The target of test [29] is Induced myeloid leukemia cell differentiation protein Mcl-1 (Homo sapiens, UniProt Q07820). The format is functional.
Induced myeloid leukemia cell differentiation protein Mcl-1, sequence (Q07820 whole entry): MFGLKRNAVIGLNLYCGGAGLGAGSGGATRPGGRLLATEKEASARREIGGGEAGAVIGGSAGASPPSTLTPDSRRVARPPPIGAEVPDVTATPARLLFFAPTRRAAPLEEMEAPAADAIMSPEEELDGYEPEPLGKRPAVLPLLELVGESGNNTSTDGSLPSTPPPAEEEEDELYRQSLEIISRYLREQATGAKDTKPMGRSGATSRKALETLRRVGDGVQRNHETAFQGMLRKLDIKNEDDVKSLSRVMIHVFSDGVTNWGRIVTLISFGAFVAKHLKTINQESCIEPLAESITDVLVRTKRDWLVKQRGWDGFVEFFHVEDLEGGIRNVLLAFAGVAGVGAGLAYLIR
In test [30] the target is Mothers against decapentaplegic homolog 3 (Homo sapiens, UniProt P84022). Put plainly: inhibitors of SMAD-driven TGF-beta signaling – dose response (AID 715). The format is functional.
Mothers against decapentaplegic homolog 3, sequence (P84022 whole entry): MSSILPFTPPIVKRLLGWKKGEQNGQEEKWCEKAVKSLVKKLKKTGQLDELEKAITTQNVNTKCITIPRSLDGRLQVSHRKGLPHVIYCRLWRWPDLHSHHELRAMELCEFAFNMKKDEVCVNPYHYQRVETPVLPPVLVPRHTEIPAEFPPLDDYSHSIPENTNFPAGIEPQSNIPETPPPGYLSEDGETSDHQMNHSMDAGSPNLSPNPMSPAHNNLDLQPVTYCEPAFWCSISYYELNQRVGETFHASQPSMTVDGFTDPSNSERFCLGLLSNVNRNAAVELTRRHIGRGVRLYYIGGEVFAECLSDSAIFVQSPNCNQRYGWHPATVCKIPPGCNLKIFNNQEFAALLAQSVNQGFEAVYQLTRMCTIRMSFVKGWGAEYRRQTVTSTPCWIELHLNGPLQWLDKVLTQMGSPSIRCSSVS
For test [31], the target named is T5, Leucine aminopeptidase (Plasmodium falciparum 3D7, UniProt Q8IL11).
T5 sequence (Q8IL11 whole entry): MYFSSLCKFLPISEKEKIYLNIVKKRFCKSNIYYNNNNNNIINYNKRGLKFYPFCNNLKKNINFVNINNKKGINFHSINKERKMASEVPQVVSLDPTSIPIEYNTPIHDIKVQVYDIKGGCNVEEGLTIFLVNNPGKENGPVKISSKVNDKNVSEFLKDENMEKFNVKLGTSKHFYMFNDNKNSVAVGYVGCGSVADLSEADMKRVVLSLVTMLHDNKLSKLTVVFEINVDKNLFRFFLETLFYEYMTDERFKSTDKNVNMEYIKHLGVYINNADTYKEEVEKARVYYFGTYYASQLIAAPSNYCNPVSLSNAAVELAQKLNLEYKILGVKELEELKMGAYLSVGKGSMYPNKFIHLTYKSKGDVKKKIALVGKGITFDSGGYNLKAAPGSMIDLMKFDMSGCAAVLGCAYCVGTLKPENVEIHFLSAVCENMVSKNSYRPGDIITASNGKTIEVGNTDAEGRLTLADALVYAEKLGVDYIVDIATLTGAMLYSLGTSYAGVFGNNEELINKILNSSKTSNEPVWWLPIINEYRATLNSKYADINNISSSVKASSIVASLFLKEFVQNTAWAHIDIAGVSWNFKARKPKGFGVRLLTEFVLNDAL
Put plainly: P. falciparum M17LAP inhibitors, primary screen, biochemical, fluorogenic H-Leu-NHMec substrate, 1536-well (AID 1619). The format is functional.

For test [32], the target named is T6, Dual specificity protein phosphatase 6 (Rattus norvegicus, UniProt Q64346).
T6 sequence (Q64346 whole entry): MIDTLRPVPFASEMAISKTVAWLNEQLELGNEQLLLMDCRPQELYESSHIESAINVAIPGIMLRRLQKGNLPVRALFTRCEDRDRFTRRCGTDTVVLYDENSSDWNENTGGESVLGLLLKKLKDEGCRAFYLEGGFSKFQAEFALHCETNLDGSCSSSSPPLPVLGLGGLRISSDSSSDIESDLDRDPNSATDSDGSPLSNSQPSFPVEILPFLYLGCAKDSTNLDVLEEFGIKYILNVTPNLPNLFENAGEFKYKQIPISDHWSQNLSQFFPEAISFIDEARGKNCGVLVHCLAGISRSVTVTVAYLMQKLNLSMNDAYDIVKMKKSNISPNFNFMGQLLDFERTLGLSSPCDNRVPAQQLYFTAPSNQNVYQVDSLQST
Put plainly: inhibition of rat DUSP6 enzyme activity – biochemical, in vitro, primary screen (AID 425).

Cytochrome P450 2C9, sequence (P11712 whole entry): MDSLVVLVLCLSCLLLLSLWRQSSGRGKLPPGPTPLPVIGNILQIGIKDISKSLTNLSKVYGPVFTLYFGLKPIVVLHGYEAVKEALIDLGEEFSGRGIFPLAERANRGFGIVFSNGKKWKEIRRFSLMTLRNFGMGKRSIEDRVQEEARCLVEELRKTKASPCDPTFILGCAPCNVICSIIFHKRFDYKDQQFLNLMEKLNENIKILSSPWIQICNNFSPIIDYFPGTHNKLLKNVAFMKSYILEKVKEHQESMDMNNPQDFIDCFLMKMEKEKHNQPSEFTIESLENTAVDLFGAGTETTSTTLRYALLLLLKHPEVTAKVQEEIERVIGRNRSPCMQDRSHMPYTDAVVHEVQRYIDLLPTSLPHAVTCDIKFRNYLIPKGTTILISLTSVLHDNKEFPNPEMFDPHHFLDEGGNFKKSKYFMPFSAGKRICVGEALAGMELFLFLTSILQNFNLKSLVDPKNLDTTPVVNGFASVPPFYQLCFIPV
Tumor necrosis factor, sequence (P01375 whole entry): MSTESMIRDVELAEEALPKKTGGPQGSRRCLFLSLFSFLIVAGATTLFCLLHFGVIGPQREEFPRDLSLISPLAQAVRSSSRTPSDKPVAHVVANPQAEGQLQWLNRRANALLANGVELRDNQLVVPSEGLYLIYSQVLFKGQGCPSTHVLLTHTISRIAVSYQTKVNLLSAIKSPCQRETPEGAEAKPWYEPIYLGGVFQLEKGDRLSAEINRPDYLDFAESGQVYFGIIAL

As to `COc1cc(/C=C2/C(=O)NN(c3cccc(Cl)c3)C2=O)cc(Br)c1O`, the IC50 is > 20 µM (inactive) in test [1]; > 20 µM (inactive) in [2]; > 20 µM (inactive) in [3]; 3.49 µM (active) in test [4]; > 20 µM (inactive) in test [5]; > 20 µM (inactive) in test [6]. The IC50 in test [7] was > 20 µM (inactive). In addition, the AC50 in [8] is > 100 µM (inactive). For the same molecule, the EC50 in test [9] was 8.57 µM (active).
`CC(C)=CCc1c(O)c(CC=C(C)C)c2c(c1O)-c1cc(O)c(O)cc1CC2`: the results for the IC50 in test [10], in test [11] and in test [16] were > 100 µM (inactive), > 100 µM (inactive) and 5.45 µM (active), respectively. The EC50 is 14.7 µM (active) in test [12], > 150 µM (not active) in test [13], > 75 µM (inconclusive) in [14] and 8.58 µM (inconclusive) in [15].
`O=C(NCCN1CCC2(CC1)C(=O)NCN2c1ccccc1)c1cnc2ccccc2c1`: the IC50 in test [17] is 20 µM (active).
Turning to `COc1ccc(C(=O)NNc2ccccc2)cc1`, the AC50 in test [18] is 21.4 µM (active); in test [19] it was 9.98 µM (active).
Consider `O=c1oc2c(O)c(O)cc3c(=O)oc4c(O)c(O)cc1c4c23` [ELLAGIC ACID], for which the AC50 in [20] was 39.8 µM (inconclusive). The IC50 in test [21] is 47.7 µM (inactive); in test [22] it was 0.76 µM (active); in test [23], < 0.98 µM (inactive); in test [24] it was 0.541 µM (active); in test [25], > 100 µM (not active); in test [26], > 55.7 µM (not active). The IC50 was < 1.23 µM (inactive) in test [27]; > 100 µM (not active) in [28]; > 54 µM (active) in test [29]; 0.142 µM (active) in test [30]; 138 µM (active) in [31]; 39.5 µM (active) in [32].

The IC50 is the concentration at which inhibition is half-maximal. A word on the AC50: it is the midpoint of the concentration-response curve, whichever way the signal moves. As a reminder, the EC50 is the concentration giving half of the maximal effect.
